# Results published in patent US20070185079A1, “Therapeutic agents I” (ASTRAZENECA AB, priority 2004, published 2007).
# Columns and labels:
# [1] = target: T1, human Melanin concentrating hormone receptor 1 (MCH1r) (Homo sapiens, UniProt Q99705); assay: MCH1 receptor radioligand binding, membranes from CHO-K1 cells, 125I-MCH; conditions: CHO-K1 cell membranes expressing human MCH1r, 30° C., 60 minutes, read-out: IC50 in human MCHr binding assay
# T1 construct: expressed in transfected cells; host or cells: CHO-K1
# Procedure: MCH1 Receptor Radioligand Binding.
# Assays were performed on membranes prepared from CHO-K1 cells expressing the human Melanin concentrating hormone receptor 1 (MCH1r). Assays were performed in a 96-well plate format in a final reaction volume of 200 μl per well. Each well contained 6 μg of membrane proteins diluted in binding buffer (50 mM Tris, 3 mM MgCl2, 0.05% bovine serum albumin (BSA) and the radioligand ^125I-MCH (IM344 Amersham) was added to give 10 000 cpm (counts per minute) per well. Each well contained 2 μl of the appropriate concentration of competitive antagonist prepared in DMSO and left to stand at 30° C. for 60 minutes. Non-specific binding was determined as that remaining following incubation with 1 μM MCH (Melanin concentrating hormone, H-1482 Bachem). The reaction was terminated by transfer of the reaction to GF/A filters using a Micro96 Harvester (Skatron Instruments, Norway). Filters were washed with assay buffer. Radioligand retained on the filters was quantified using a1450 Microbeta TRILUX (Wallac , Finland).
# (§1) Non-specific binding was subtracted from all values determined. Maximum binding was that determined in the absence of any competitor following subtraction of the value determined for non-specific binding. Binding of compounds at various concentrations was plotted according to the equation y=A+((B−A)/1+((C/x)ˆAD))) and IC50 estimated where • A is the bottom plateau of the curve i.e. the final minimum y value • B is the top of the plateau of the curve i.e. the final maximum y value • C is the x value at the middle of the curve. This represents the log EC50 value when A+B=100 • D is the slope factor. x is the original known x values. y is the original known y values.
# [2] = target: T2, rat Melanin concentrating hormone receptor 1 (MCH1r) (Rattus norvegicus, UniProt P97639); assay: MCH1 receptor radioligand binding, membranes from HEK293 cells, 125I-MCH; conditions: HEK293 cell membranes stably expressing rat MCH1r, room temperature, 60 minutes
# T2 construct: expressed in transfected cells
# Description: as §1
# Assays were also performed on membranes prepared from HEK293 cells stably expressing the rat Melanin concentrating hormone receptor 1 (MCH1r) (Lembo et al. Nature Cell Biol 1 267-271). Assays were performed in a 96-well plate format in a final reaction volume of 200 μl per well. […] Radioligand retained on the filters was quantified using a1450 Microbeta TRILUX (Wallac, Finland).
# T1 sequence (Q99705 whole entry): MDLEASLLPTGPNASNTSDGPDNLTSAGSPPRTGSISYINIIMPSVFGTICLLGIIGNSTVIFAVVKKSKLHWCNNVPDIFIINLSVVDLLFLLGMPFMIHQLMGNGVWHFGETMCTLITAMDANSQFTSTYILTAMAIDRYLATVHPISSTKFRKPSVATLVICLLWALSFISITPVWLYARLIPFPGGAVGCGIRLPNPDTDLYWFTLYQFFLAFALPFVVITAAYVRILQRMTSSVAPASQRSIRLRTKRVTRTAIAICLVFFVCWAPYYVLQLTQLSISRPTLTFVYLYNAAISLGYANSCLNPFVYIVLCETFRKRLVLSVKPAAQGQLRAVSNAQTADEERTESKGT
# T2 sequence (P97639 whole entry): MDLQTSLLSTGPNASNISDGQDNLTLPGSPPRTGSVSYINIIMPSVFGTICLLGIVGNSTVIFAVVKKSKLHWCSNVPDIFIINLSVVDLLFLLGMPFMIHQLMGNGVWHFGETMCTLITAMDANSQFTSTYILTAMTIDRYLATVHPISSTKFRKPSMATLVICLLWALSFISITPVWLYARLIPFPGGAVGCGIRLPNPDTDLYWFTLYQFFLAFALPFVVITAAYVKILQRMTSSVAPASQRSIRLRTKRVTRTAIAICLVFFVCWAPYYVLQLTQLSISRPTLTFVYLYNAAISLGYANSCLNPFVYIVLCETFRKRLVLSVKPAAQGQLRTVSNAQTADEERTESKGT
Structure (SMILES),IC50 [1],IC50 [2]
"COc1ccc2nc(N3CC4CCC(C3)C4N(C)Cc3ccsc3)cc(C)c2c1 (stereo not drawn) [Example 20, 3-(6-Methoxy-4-methylquinolin-2-yl)-N-methyl-N-(3-thienylmethyl)-3-azabicyclo [3.2.1]octan-8-amine]",560 nM,
"COc1ccc2nc(N[C@H]3CC[C@H](NCc4ccc(-c5cccs5)s4)C3)cc(C)c2c1 [Example 16, (1S,3S)-N-(2,2′-bithien-5-ylmethyl)-N′-(6-methoxy-4-methylquinolin-2-yl)cyclopentane-1,3-diamine]",94 nM,
"COc1cc(N[C@H]2CCC[C@H](NCc3ccsc3)C2)nc2ccc(F)cc12 [Example 5, (1S3S)-N-(6-fluoro-4-methoxyquinolin-2-yl)-N′-(3-thienylmethyl)cyclohexane-1,3-diamine]",26 nM,
"Cc1cc(N[C@H]2CC[C@H](NCc3cn(C)c4ccccc34)C2)nc2ccc(F)cc12 [Example 6, (1S,3S)-N-(6-fluoro-4-methylquinolin-2-yl)-N′-[(1-methyl-1H-indol-3-yl)methyl]cyclopentane-1,3-diamine]",,79 nM
"Cc1cc(N[C@H]2CC[C@H](NCc3cn(C)c4cnccc34)C2)nc2ccc(F)cc12 [Example 35, (1S,3S)-N-(6-Fluoro-4-methylquinolin-2-yl)-N′-[(1-methyl-1H-pyrrolo[2,3-c]pyridin-3-yl)methyl]cyclopentane-1,3-diamine]",830 nM,
"COc1ccc2c(C)cc(N[C@H]3C[C@@H]4C[C@H]3[C@@H](NCc3cn(C)c5ccccc35)C4)nc2c1 [Example 32, (1S,2S,4R,6S)-N-(7-methoxy-4-methylquinolin-2-yl)-N′-[(1-methyl-1H-indol-3-yl)methyl]bicyclo[2.2.1]heptane-2,6-diamine]",44 nM,
